Experimental data from patent publication US8362204B2 (priority 2006, dated 2013).
Several values for one entry are separate records, joined by “and”; a condition that tells them apart may be missing. Equal entries are not always repeated.

Target: T1, neuronal-type nicotinic receptors (Bos taurus, UniProt Q07263+Q8SPU6)
T1 construct: monolayer cultures of bovine adrenal chromaffin cells; endogenous in cells; host or cells: bovine adrenal chromaffin cells (primary monolayer cultures)
Format: cell-based, Bovine

T1 sequence (Q07263 22-495): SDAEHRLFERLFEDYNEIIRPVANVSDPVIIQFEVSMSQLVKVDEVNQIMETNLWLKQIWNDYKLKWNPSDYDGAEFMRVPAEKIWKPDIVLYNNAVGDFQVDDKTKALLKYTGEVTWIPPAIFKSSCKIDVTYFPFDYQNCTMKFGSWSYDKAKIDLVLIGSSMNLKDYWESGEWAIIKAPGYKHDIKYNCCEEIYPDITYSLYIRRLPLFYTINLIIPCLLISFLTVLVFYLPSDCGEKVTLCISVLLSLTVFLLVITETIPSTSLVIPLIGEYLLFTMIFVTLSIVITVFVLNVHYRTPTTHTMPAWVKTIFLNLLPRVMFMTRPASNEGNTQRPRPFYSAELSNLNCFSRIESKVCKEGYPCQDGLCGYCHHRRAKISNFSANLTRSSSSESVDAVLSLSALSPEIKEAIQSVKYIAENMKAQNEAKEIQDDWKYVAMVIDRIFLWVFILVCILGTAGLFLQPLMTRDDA
T1 sequence (Q8SPU6 20-496): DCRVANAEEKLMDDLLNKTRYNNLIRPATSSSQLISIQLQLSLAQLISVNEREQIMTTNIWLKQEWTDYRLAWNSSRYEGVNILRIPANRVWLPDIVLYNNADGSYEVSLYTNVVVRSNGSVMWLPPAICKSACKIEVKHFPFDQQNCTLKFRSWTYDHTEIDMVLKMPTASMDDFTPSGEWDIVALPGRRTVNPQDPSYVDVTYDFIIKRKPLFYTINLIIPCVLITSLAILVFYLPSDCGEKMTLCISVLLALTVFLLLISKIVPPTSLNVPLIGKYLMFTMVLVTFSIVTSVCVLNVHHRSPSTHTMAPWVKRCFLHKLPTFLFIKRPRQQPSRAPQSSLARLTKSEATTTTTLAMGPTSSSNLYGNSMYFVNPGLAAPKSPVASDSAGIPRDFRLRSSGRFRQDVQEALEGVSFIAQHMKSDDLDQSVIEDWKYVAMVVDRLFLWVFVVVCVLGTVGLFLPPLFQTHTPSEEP

With `CN1CCCC1c1cccnc1` (centres unmarked) [NICOTINE, nicotine, reference compound] the “Adrenaline Release, 1st-4th (individual wells)” value was 4.31% and 4.52% (2×) and 4.48%, the “Adrenaline Release, mean” value was 4.46% and the “Noradrenaline Release, 1st-4th (individual wells)” value was 6.62% and 6.89% (2×) and 6.99%. For the same compound, the “Noradrenaline Release, mean” value was 6.85% and the “noradrenaline released, basal release (0.72%) subtracted” value was 6.13%.
